This note sets out measurements from PMC6891555, “Thuwalallenes A–E and Thuwalenynes A–C: New C15 Acetogenins with Anti-Inflammatory Activity from a Saudi Arabian Red Sea Laurencia sp” (Marine Drugs, 2019).

In series [1] the test system is NO production in LPS-treated RAW 264.7 cells. As to the kind of experiment: Inhibition of NO production (Griess reaction) in LPS-treated RAW 264.7 macrophages. In kind it is cell-based, mouse. To be noted: for IC50: Mus musculus, RAW264.7, LPS (100 ng/mL, 48 h)-treated RAW 264.7 cells, 1 h pre-treatment, Griess reaction, vs vehicle Carbowax 400; for anti-inflammatory activity (inhibition of NO production), in words: TLR4 (LPS) stimulated macrophages. The procedure: (§1) The IC50 values for the inhibition of NO production were determined in LPS-treated RAW 264.7 cells in comparison to cells treated with the vehicle (Carbowax 400) only (Table 3, Figure S1). To verify that the anti-inflammatory activity observed was not due to cytotoxic effect, the potential cytotoxicity of 1–6, 8, 10 and 11 was evaluated using the MTT assay following 24, 48 and 72 h of treatment in RAW 264.7 macrophages (Table 3, Figure S2).
(§2) Mouse macrophage cell line RAW 264.7 was cultured in DMEM medium (cat. # 21885-025, Gibco, Thermo Fisher Scientific, Waltham, MA, USA) supplemented with 10% heat inactivated fetal bovine serum (cat. # 10270-106, Gibco, Thermo Fisher Scientific, Waltham, MA, USA) and 1% penicillin-streptomycin (cat. # 15070-063, Gibco, Thermo Fisher Scientific, Waltham, MA, USA). Cells were cultured in 37 °C and 5% CO2. Each compound was diluted in Carbowax^TM 400 + 10% ethanol (cat. # 1.00983, Merck, Darmstadt, Germany), used also as control solvent. Final concentration in culture was 0.1% v/v carbowax and 0.01% v/v ethanol. RAW 264.7 macrophages were activated using 100 ng/mL lipopolysaccharide (LPS) (L2630, Merck, Darmstadt, Germany). In IC50 determination experiments, macrophages were pre-treated for 1 h with the respective compound prior to LPS stimulation.
30 × 10^4 RAW 264.7 mouse macrophages were plated in 24-well plates over-night with 0.5 mL complete medium. Cells were pretreated for 1 h with the respected compound concentration and then stimulated with 100 ng/mL LPS (L2630, Merck, Darmstadt, Germany) for 48 h. The amount of nitrite, an oxidative product of NO, was measured in culture supernatant of each sample using the Griess reaction. 100 μL of supernatant was mixed with 100 μL of sulfanilamide solution (1% sulfanilamide in 5% H3PO4) and incubated for 5 min at room temperature. Then, 100 μL of NED solution (0.1% N-1-napthylethylenediamine dihydrochlorite in H2O) was added and the absorbance was measured in an automated microplate reader (Infinite 200 PRO, Tecan, Männedorf, Switzerland) at 540 nm. Nitrite concentration was calculated using a sodium nitrite standard curve. All incubations were performed in the dark.

Series [2] is described as follows: Cytotoxicity by MTT assay in RAW 264.7 macrophages. In kind it is cell-based, mouse. To be noted: mouse, 72 h of treatment. The procedure: as §1, §2
(§3) 3.5 × 10^3 RAW 264.7 mouse macrophages were seeded in 96-well plate and cultured over night. Cells were subsequently treated with the respective compound concentration and incubated for 24, 48 and 72 h. Number of cells was measured prior to treatment and used as normalisation control. Thiazolyl Blue Tetrazolium Bromide (MTT) (A2231.001, Applichem GmbH, Darmstadt, Germany) was added to the cells in a final concentration of 0.5 mg/mL and then cells were incubated at 37 °C and 5% CO2 for 4 h. The supernatant was discarded and cells were lysed with 2-propanol (33539, Honeywell, Charlotte, NC, USA) with 0.4% HCl (30721, Merck, Darmstadt, Germany). The absorbance of each sample was measured in an automated microplate reader (Infinite 200 PRO, Tecan, Männedorf, Switzerland) at 600 nm. The average OD of each treated sample was normalized to the OD of the control sample and statistical analysis was performed using Graphpad Prism 7.0 (GraphPad Software, San Diego, CA, USA).

In another series the test system is RAW 264.7 macrophages. As to the kind of experiment: Cytotoxicity by MTT assay in RAW 264.7 macrophages. In kind it is cell-based, mouse. Particulars: for concentration above which cytotoxicity was observed: 72 h following treatment. As to the method: as §1, §2, §3
Series [3] can be described thus: Stability of isolated metabolites (observation). Particulars: reason why bioactivity was not evaluated. In kind it is physicochemical.

Molecules are shown by their SMILES. “Also recorded” adds a separate entry of the source. Some results are limits rather than exact numbers.

The term IC50 denotes the concentration needed to halve the response being measured. For the compound `CC[C@@H]1O[C@@H]2C[C@@H]3O[C@@H]3C[C@H](C=C=CBr)O[C@@H]2C[C@H]1Br` (relative stereo) [Compound 2, Thuwalallene B], in series [1], the half-maximal inhibitory concentration (IC50) was 13.2 ± 0.57 µM. In addition, the IC50 at 72 h in series [2] is over 31.2 µM. Moreover, in the series on RAW 264.7 macrophages, the “concentration above which cytotoxicity was observed” value is over 31.25 µM.

In the case of `CC[C@@H]1O[C@@H]2C/C=C\C[C@H](C=C=CBr)O[C@@H]2C[C@H]1Br` (relative stereo) [Compound 3, Thuwalallene C], the 50% inhibitory concentration (IC50) in series [1] worked out at 4.18 ± 0.48 µM. This compound also registered a half-inhibitory concentration (IC50) at 72 h in series [2] of over 15.6 µM. Further, in the series on RAW 264.7 macrophages, the “concentration above which cytotoxicity was observed” value is given as “higher than 15.62 μM”.

In the case of `C#C/C=C\C[C@@H]1O[C@@H]2C[C@@H](Br)[C@H](CC)O[C@@H]2C[C@@H]1Br` (relative stereo) [Compound 4, Thuwalenyne A], in series [1], the IC50 is over 62.5 µM and the “anti-inflammatory activity (inhibition of NO production), in words” value is “did not exhibit any activity; also recorded: did not exhibit anti-inflammatory activity”. In addition, the concentration for half-maximal inhibition (IC50) at 72 h in series [2] was over 62.5 µM. In addition, the “cytotoxicity, in words” value in the series on RAW 264.7 macrophages is listed as “did not exhibit anti-inflammatory activity or cytotoxicity”.

For `C#C/C=C\CC(Br)[C@H]1C[C@H]2O[C@@H](CC)[C@H](Br)C[C@H]2O1` (relative stereo) [Compound 6, Thuwalenyne B], the IC50 in series [1] is 37.4 ± 2.51 µM. For the same compound, the IC50 at 72 h in series [2] is over 15.6 µM. Further, the “concentration above which cytotoxicity was observed” value in the series with RAW 264.7 macrophages is listed as “higher than 15.62 μM”.

On to `C#C/C=C\C/C=C\C[C@H]1O[C@@H](CC)[C@H](Br)C[C@H]1O` (relative stereo) [Compound 7, Thuwalenyne C], for which the “stability of the metabolite, in words” value in series [3] is given as “proven to be unstable”.

`CCC1OC2CC3OC3CC(C=C=CBr)OC2CC1Br` (centres unmarked) [Compound 1, Thuwalallene A]: the IC50 in series [1] stood at 26 ± 3.73 µM. The same compound yielded a 50% inhibitory concentration (IC50) at 72 h in series [2] of over 15.6 µM. For the same compound, the “concentration above which cytotoxicity was observed” value in the series on RAW 264.7 macrophages is recorded as “higher than 15.62 μM”.

On to `CCC1OC2CC(C(O)CC(Cl)C=C=CBr)OC2CC1Br` (centres unmarked) [Compound 5, Thuwalallene D], for which the IC50 in series [1] is 12.4 ± 1.04 µM. Also, in series [2], the 50% inhibitory concentration (IC50) at 72 h was over 15.6 µM. Also, the “concentration above which cytotoxicity was observed” value in the series on RAW 264.7 macrophages is reported as “higher than 15.62 μM”.

As to `CCC(Br)C1CC2OC(C=C=CBr)CC=CCC2O1` (centres unmarked) [Compound 8, Thuwalallene E], the IC50 in series [1] stood at 3.98 ± 0.6 µM. In addition, the IC50 at 72 h in series [2] is over 7.81 µM. In addition, the “concentration above which cytotoxicity was observed” value in the series on RAW 264.7 macrophages was at least 7.81 µM.

With `CC(C)(O)[C@H]1CC[C@](C)([C@@H](O)CC[C@](C)(O)[C@H]2CC[C@H]3O[C@@H]([C@]4(C)CC[C@@H](Br)C(C)(C)O4)CC[C@]3(C)O2)O1` [Compound 10, thyrsiferol], in series [1], the “anti-inflammatory activity (inhibition of NO production), in words” value is “IC50 values in the low nM scale”. In series [2], this compound had a half-inhibitory concentration (IC50) at 72 h of over 0.1 µM. Further, in the series with RAW 264.7 macrophages, the “concentration above which significant cytotoxicity was observed” value was “above 100 nM” and the “cytotoxicity, in words” value is reported as “without significant cytotoxicity”.

With `CC(=O)OC(C)(C)C1CCC(C)(C(O)CCC(C)(O)C2CCC3OC(C4(C)CCC(Br)C(C)(C)O4)CCC3(C)O2)O1` (centres unmarked) [Compound 11, 23-acetylthyrsiferol], in series [1], the half-maximal inhibitory concentration (IC50) amounted to 0.00263 µM and the “anti-inflammatory activity (inhibition of NO production), in words” value was “IC50 values in the low nM scale”. In series [2], this compound came in with a half-inhibitory concentration (IC50) of over 0.01 µM. Moreover, in the series on RAW 264.7 macrophages, the “concentration above which significant cytotoxicity was observed” value is “above 10 nM” and the “cytotoxicity, in words” value is “without significant cytotoxicity”.
